Test results taken from patent US8802713B2, “3-alkoxy-1-phenylpyrazole derivatives and pesticides” (Kumiai Chemical Industry Co., Ltd., priority 2007, dated 2014).
Where two headings read alike, the source gives them in different places.

Key:
cotton aphid = test: Insecticidal test on cotton aphid (seedling dip); type: in vivo; conditions: Aphis gossypii, in Cucumis sativus, 72 h
Method: A wettable powder prepared in accordance with Formulation Example 2 was diluted with water to a concentration of an active ingredient of 500 ppm. Cucumber seedlings which had been inoculated with larvae of cotton aphid were dipped in this solution and dried in air. The treated cucumber seedlings were placed in a thermostatic chamber at 25° C. for 3 days, and the live insects were counted for calculation of the mortality by Equation 2. The test was carried out by one series system.

diamondback moth = test: Insecticidal test on diamondback moth; type: in vivo; conditions: Plutella xylostella, 144 h
Method: A wettable powder prepared in accordance with Formulation Example 2 was diluted with water to a concentration of an active ingredient of 500 ppm. Cabbage leaves were dipped in this solution and dried in air and then put in a plastic cup having a capacity of 60 mL. 10 second-instar larvae of diamondback moth were released in the cup and the cup was lidded. Then, the cup was placed in a thermostatic chamber at 25° C. for 6 days, and dead moths were counted for calculation of the mortality by Equation 2. The test was carried out by one series system.

brown rice planthopper = test: Insecticidal test on brown rice planthopper; type: in vivo; conditions: 144 h
Method: A wettable powder prepared in accordance with Formulation Example 2 was diluted with water to a concentration of an active ingredient of 500 ppm. Rice sprouts were dipped in this solution and put in a plastic cup having a capacity of 60 mL. Ten third-instar larvae of brown rice planthopper were released in the cup, the cup was lidded and placed in a thermostatic chamber at 25° C. for 6 days, and the number of dead larvae were counted for calculation of the mortality by Equation 2. The test was carried out by one series system.

two-spotted spider mites = test: Miticidal test on two-spotted spider mites (seedling dip); type: in vivo, Tetranvchus urticae; conditions: Glycine max, 312 h, read-out: protective value
Method: A wettable powder prepared in accordance with Formulation Example 2 was diluted with water to a concentration of an active ingredient of 500 ppm. Soybean seedlings which had been inoculated with imago two-spotted spider mites were dipped in the solution and dried in air. The treated soybean seedlings were placed in a thermostatic chamber at 25° C. for 13 days, and the number of live mites were assessed for calculation of the protective value by Equation 1. The test was carried out by one series system.

cotton bollworm = test: Insecticidal test on cotton bollworm; type: in vivo; conditions: Helicoverpa armigera, 144 h
Method: A wettable powder prepared in accordance with Formulation Example 2 was diluted with water to a concentration of an active ingredient of 500 ppm. Cabbage leaves were dipped in this solution and dried in air and then put in a plastic cup having a capacity of 60 mL. Five hatched larvae of cotton bollworm were released in the cup, and the cup was lidded and placed in a thermostatic chamber at 25° C. for 6 days, and the number of dead larvae were assessed for calculation of the mortality by Equation 2. The test was carried out by two series system.

[1] = 500 ppm active ingredient, soybean seedlings with imago mites dipped, 25° C., 13 days
[2] = 500 ppm active ingredient, cabbage leaves dipped, second-instar larvae, 25° C., 6 days, read-out: mortality
[3] = 500 ppm active ingredient, cabbage leaves dipped, hatched larvae, 25° C., 6 days, read-out: mortality

Cc1cc(F)c(-n2nc(OCC(F)(F)C(F)(F)F)cc2NC(=O)C(F)(F)F)cc1SCC(F)(F)F [1-29, 1-{2-fluoro-4-methyl-5-(2,2,2-trifluoroethylthio)phenyl}-3-(2,2,3,3,3-pentafluoropropoxy)-5-trifluoroacetylaminopyrazole]
≥ 90%: mortality at 500 ppm (cotton aphid) | mortality at 500 ppm (diamondback moth; in Brassica oleracea) | mortality at 500 ppm (brown rice planthopper) | pest or weed control at 500 ppm (two-spotted spider mites; [1])

CC(=O)Nc1cc(OCC(F)(F)C(F)(F)C(F)(F)C(F)(F)F)nn1-c1cc(SCC(F)(F)F)c(C)cc1F [1-77, 5-acetylamino-1-{2-fluoro-4-methyl-5-(2,2,2-trifluoroethylthio)phenyl}-3-(2,2,3,3,4,4,5,5,5-nonafluoropentyloxy)pyrazole]
≥ 90%: mortality at 500 ppm (diamondback moth; [2]) | mortality at 500 ppm (cotton bollworm; [3]) | mortality at 500 ppm (brown rice planthopper) | pest or weed control at 500 ppm (two-spotted spider mites)

Cc1cc(F)c(-n2nc(OCC(F)(F)C(F)(F)F)cc2C)cc1SCC(F)(F)F [1-91, 1-{2-fluoro-4-methyl-5-(2,2,2-trifluoroethylthio)phenyl}-5-methyl-3-(2,2,3,3,3-pentafluoropropoxy)pyrazole]
≥ 90%: mortality at 500 ppm (cotton aphid) | mortality at 500 ppm (diamondback moth; in Brassica oleracea) | mortality at 500 ppm (brown rice planthopper) | pest or weed control at 500 ppm (two-spotted spider mites; [1])

Cc1cc(F)c(-n2nc(OCC(F)(F)C(F)(F)F)cc2C#N)cc1SCC(F)(F)F [1-133, 5-cyano-1-{2-fluoro-4-methyl-5-(2,2,2-trifluoroethylthio)phenyl}-3-(2,2,3,3,3-pentafluoropropoxy)pyrazole]
≥ 90%: mortality at 500 ppm (cotton aphid) | mortality at 500 ppm (diamondback moth; in Brassica oleracea) | mortality at 500 ppm (brown rice planthopper) | pest or weed control at 500 ppm (two-spotted spider mites; [1])

CC(=O)Nc1cc(OCC(F)(F)C(F)(F)F)nn1-c1cc([S+]([O-])CC(F)(F)Cl)c(C)cc1F (stereo not shown) [1-178, 5-acetylamino-1-{2-fluoro-4-methyl-5-(2-chloro-2,2-difluoroethylsulfinyl)phenyl}-3-(2,2,3,3,3-pentafluoropropoxy)pyrazole]
≥ 90%: mortality at 500 ppm (diamondback moth; [2]) | mortality at 500 ppm (cotton bollworm; [3]) | mortality at 500 ppm (brown rice planthopper)

CNc1cc(OC(F)(F)C(F)C(F)(F)F)nn1-c1cc(SCC(F)(F)F)c(C)cc1F (stereo not shown) [1-186, 1-{2-fluoro-4-methyl-5-(2,2,2-trifluoroethylthio)phenyl}-3-(1,1,2,3,3,3-hexafluoropropoxy)-5-methylaminopyrazole]
≥ 90%: mortality at 500 ppm (cotton aphid) | mortality at 500 ppm (diamondback moth; in Brassica oleracea) | mortality at 500 ppm (brown rice planthopper) | pest or weed control at 500 ppm (two-spotted spider mites; [1])

CC(=O)Nc1cc(OC(F)(F)C(F)(F)C(F)(F)F)nn1-c1cc([S+]([O-])CC(F)(F)F)c(C)cc1F (stereo not shown) [1-268, 5-acetylamino-1-{2-fluoro-4-methyl-5-(2,2,2-trifluoroethylsulfinyl)phenyl}-3-(1,1,2,2,3,3,3-heptafluoropropoxy)pyrazole]
≥ 90%: mortality at 500 ppm (diamondback moth; [2]) | mortality at 500 ppm (cotton bollworm; [3]) | pest or weed control at 500 ppm (two-spotted spider mites)

C#CCNc1cc(OC(F)(F)C(F)OC(F)(F)C(F)(F)C(F)(F)F)nn1-c1cc([S+]([O-])CC(F)(F)F)c(C)cc1F (stereo not shown) [1-358, 1-{2-fluoro-4-methyl-5-(2,2,2-trifluoroethylsulfinyl)phenyl}-5-(2-propynylamino)-3-{1,1,2-trifluoro-2-(heptafluoropropoxy)ethoxy}pyrazole]
≥ 90%: mortality at 500 ppm (diamondback moth; [2]) | mortality at 500 ppm (cotton bollworm; [3])

CC(=O)Nc1cc(OC(F)(F)C(F)OC(F)(F)C(F)(F)C(F)(F)F)nn1-c1cc(SCC(F)(F)F)c(C)cc1F (stereo not shown) [1-370, 5-acetylamino-1-{2-fluoro-4-methyl-5-(2,2,2-trifluoroethylthio)phenyl}-3-{1,1,2-trifluoro-2-(heptafluoropropoxy)ethoxy}pyrazole]
≥ 90%: mortality at 500 ppm (diamondback moth; [2]) | mortality at 500 ppm (cotton bollworm; [3]) | pest or weed control at 500 ppm (two-spotted spider mites)

CC(=O)Nc1cc(OC(F)(F)C(F)OC(F)(F)C(F)(F)C(F)(F)F)nn1-c1cc([S+]([O-])CC(F)(F)F)c(C)cc1F (stereo not shown) [1-371, 5-acetylamino-1-{2-fluoro-4-methyl-5-(2,2,2-trifluoroethylsulfinyl)phenyl}-3-{1,1,2-trifluoro-2-(heptafluoropropoxy)ethoxy}pyrazole]
≥ 90%: mortality at 500 ppm (diamondback moth; [2]) | mortality at 500 ppm (cotton bollworm; [3]) | pest or weed control at 500 ppm (two-spotted spider mites)

CC(=O)Nc1cc(OCC(F)(F)OC(F)(F)C(F)(F)OC(F)(F)F)nn1-c1cc(SCC(F)(F)F)c(C)cc1F [1-374, 5-acetylamino-3-[2,2-difluoro-2-{2-trifluoromethoxy-(1,1,2,2-tetrafluoroethoxy)}ethoxy]-1-{2-fluoro-4-methyl-5-(2,2,2-trifluoroethylthio)phenyl}pyrazole]
≥ 90%: mortality at 500 ppm (diamondback moth; in Brassica oleracea) | mortality at 500 ppm (cotton bollworm; in Brassica oleracea) | pest or weed control at 500 ppm (two-spotted spider mites; [1])

CC(=O)Nc1cc(OCC(F)(F)OC(F)(F)C(F)(F)OC(F)(F)F)nn1-c1cc([S+]([O-])CC(F)(F)F)c(C)cc1F (stereo not shown) [1-375, 5-acetylamino-3-[2,2-difluoro-2-{2-trifluoromethoxy-(1,1,2,2-tetrafluoroethoxy)}ethoxy]-1-{2-fluoro-4-methyl-5-(2,2,2-trifluoroethylsulfinyl)phenyl}pyrazole]
≥ 90%: mortality at 500 ppm (diamondback moth; in Brassica oleracea) | mortality at 500 ppm (cotton bollworm; in Brassica oleracea) | pest or weed control at 500 ppm (two-spotted spider mites; [1])

CC(=O)Nc1cc(OC(F)(F)C(F)(F)C(F)(F)C(F)(F)C(F)(F)F)nn1-c1cc(SCC(F)(F)F)c(C)cc1F [1-488, 5-acetylamino-1-{2-fluoro-4-methyl-5-(2,2,2-trifluoroethylthio)phenyl}-3-(1,1,2,2,3,3,4,4,5,5,5-undecafluoropentyloxy)pyrazole]
≥ 90%: mortality at 500 ppm (diamondback moth; [2]) | mortality at 500 ppm (cotton bollworm; [3])

CC(=O)Nc1cc(OC(F)(F)C(F)(F)C(F)(F)C(F)(F)C(F)(F)F)nn1-c1cc([S+]([O-])CC(F)(F)F)c(C)cc1F (stereo not shown) [1-489, 5-acetylamino-1-{2-fluoro-4-methyl-5-(2,2,2-trifluoroethylsulfinyl)phenyl}-3-(1,1,2,2,3,3,4,4,5,5,5-undecafluoropentyloxy)pyrazole]
≥ 90%: mortality at 500 ppm (diamondback moth; [2]) | mortality at 500 ppm (cotton bollworm; [3]) | pest or weed control at 500 ppm (two-spotted spider mites)

Cc1cc(F)c(-n2nc(OC(F)(F)C(F)OC(F)(F)F)cc2C#N)cc1SCC(F)(F)F (stereo not shown) [1-668, 5-cyano-1-{2-fluoro-4-methyl-5-(2,2,2-trifluoroethylthio)phenyl}-3-{1,1,2-trifluoro-2-(trifluoromethoxy)ethoxy}pyrazole]
≥ 90%: mortality at 500 ppm (cotton aphid) | mortality at 500 ppm (diamondback moth; in Brassica oleracea) | mortality at 500 ppm (brown rice planthopper) | pest or weed control at 500 ppm (two-spotted spider mites; [1])

COc1cc(OC(F)(F)C(F)OC(F)(F)F)nn1-c1cc(SCC(F)(F)F)c(C)cc1F (stereo not shown) [1-794, 1-{2-fluoro-4-methyl-5-(2,2,2-trifluoroethylthio)phenyl}-5-methoxy-3-{1,1,2-trifluoro-2-(trifluoromethoxy)ethoxy}pyrazole]
≥ 90%: mortality at 500 ppm (cotton aphid) | mortality at 500 ppm (diamondback moth; in Brassica oleracea) | mortality at 500 ppm (brown rice planthopper) | pest or weed control at 500 ppm (two-spotted spider mites; [1])

Cc1cc(F)c(-n2nc(OC(F)(F)C(F)OC(F)(F)F)cc2C(F)F)cc1SCC(F)(F)F (stereo not shown) [1-1531, 5-difluoromethyl-1-{2-fluoro-4-methyl-5-(2,2,2-trifluoroethylthio)phenyl}-3-{1,1,2-trifluoro-2-(trifluoromethoxy)ethoxy}pyrazole]
≥ 90%: mortality at 500 ppm (cotton aphid) | mortality at 500 ppm (diamondback moth; in Brassica oleracea) | mortality at 500 ppm (brown rice planthopper) | pest or weed control at 500 ppm (two-spotted spider mites; [1])

Cc1cc(F)c(-n2nc(OC(F)(F)C(F)OC(F)(F)F)cc2CF)cc1SCC(F)(F)F (stereo not shown) [1-1579, 1-{2-fluoro-4-methyl-5-(2,2,2-trifluoroethylthio)phenyl}-5-fluoromethyl-3-{1,1,2-trifluoro-2-(trifluoromethoxy)ethoxy}pyrazole]
≥ 90%: mortality at 500 ppm (cotton aphid) | mortality at 500 ppm (diamondback moth; in Brassica oleracea) | mortality at 500 ppm (brown rice planthopper) | pest or weed control at 500 ppm (two-spotted spider mites; [1])

Cc1cc(F)c(-n2nc(OC(F)(F)C(F)OC(F)(F)F)cc2CF)cc1[S+]([O-])CC(F)(F)F (stereo not shown) [1-1580, 1-{2-fluoro-4-methyl-5-(2,2,2-trifluoroethylsulfinyl)phenyl}-5-fluoromethyl-3-{1,1,2-trifluoro-2-(trifluoromethoxy)ethoxy}pyrazole]
≥ 90%: mortality at 500 ppm (cotton aphid) | mortality at 500 ppm (brown rice planthopper) | pest or weed control at 500 ppm (two-spotted spider mites; [1])
